Results published in patent publication US8957047B2, “GLA monotherapy for use in cancer treatment” (Immune Design Corp., priority 2013, dated 2015).

Columns and labels:
[1] = system: B16 melanoma cells; assay: Murine B16 melanoma model, subcutaneous inoculation (Example 1); assay type: in vivo, mice; conditions: 5 μg GLA-SE i.m. on Day 0, Day 9 and Day 14; relative to saline; FIG. 2
Experimental: The B16 murine melanoma model is an accepted animal model for both solid tumor formation as well as metastasis (see e.g., Curr Protoc Immunol. 2001 May; CHAPTER 20: Unit-20.1. doi:10.1002/0471142735.im2001s39). In this study, mice were inoculated subcutaneously with 3×10^5 B16 cells on Day minus 9 (n=10 per group). Mice were treated with either saline or 5 μg GLA-SE i.m. on Day 0, Day 9 and Day 14.

[2] = system: B16F10 cells; assay: B16F10 footpad model, GLA i.t. plus anti-CD40 i.p. (Example 6); assay type: in vivo, C57B1/6 mice; conditions: GLA alone: 5 μg GLA-SE/2% SE i.t. from Day 4 every 3-4 days; FIG. 8A
Experimental: Mice were given i.t. administrations of 5 μg GLA-SE/2% SE (or 2% SE vehicle control) plus i.p. administrations of anti-CD40 (or 2A3 control antibody) at 100 μg, starting on Day 4 and every 3-4 days thereafter until the end of study (FIG. 8A).

[3] = system: B16F10 cells; assay: B16F10 footpad model, optimal time to begin GLA administration (Example 5); assay type: in vivo, C57BL/6 mice; conditions: 5 μg GLA-SE/2% SE i.t. starting Day 4 post-tumor injection, every 3-4 days; FIG. 7A
Experimental: To determine the optimal time to begin GLA administration, female C57BL/6 mice (n=5 per group) were inoculated with 5×10^5 B16F10 cells, subcutaneously in the right footpad on Day 0. Mice were given intratumoral (i.t.) administrations of 5 μg GLA-SE/2% SE (or 2% SE vehicle control) on Day 4, Day 9, or Day 14, and every 3-4 days thereafter until the end of study.

[4] = system: B16F10 cells; assay: B16F10 model, GLA i.t. plus anti-CD40 i.t., suboptimal doses (Example 6); assay type: in vivo, mice; conditions: GLA alone: 2 μg GLA-SE/2% SE i.t. on Day 8 and 15 post-tumor injection; FIG. 8B
Experimental: To determine whether anti-CD40 exerted anti-tumor effects in the tumor microenvironment, tumor-bearing mice were given i.t. administrations of 2 μg GLA-SE/2% SE (or 2% SE vehicle control) on Day 8 and 15 post-tumor injection and i.t. administrations of 50 μg anti-CD40 (or 2A3 control antibody) on Day 5 and 12 post-tumor injection (FIG. 8B). Suboptimal doses for GLA and anti-CD40 were given to avoid masking of a possible synergistic effect of the combination.

[5] = system: B16F10 cells; assay: B16F10 footpad model, GLA plus checkpoint inhibitor (Example 5); assay type: in vivo, C57B1/6 mice; conditions: GLA alone: 5 μg GLA-SE/2% SE i.t. from Day 4 every 3-4 days; FIG. 7B
Experimental: Mice were given i.t. administrations of 5 μg GLA-SE/2% SE (or 2% SE vehicle control) plus intraperitoneal (i.p.) administrations of a CPI [anti-PDL1, anti-PD1, anti-CTLA4 (clone 9H10), anti-CTLA4 (clone 9D9), or LTF2 control antibody] at 100 μg starting on Day 4 and every 3-4 days thereafter until the end of study.

Question: For `CCCCCCCCCCCCCC(=O)O[C@H](CCCCCCCCCCC)CC(=O)O[C@@H]1[C@@H](NC(=O)C[C@H](CCCCCCCCCCC)OC(=O)CCCCCCCCCCCCC)[C@H](OC[C@H]2O[C@H](O)[C@H](NC(=O)C[C@H](O)CCCCCCCCCCC)[C@@H](OC(=O)C[C@H](O)CCCCCCCCCCC)[C@@H]2O)O[C@H](CO)[C@H]1OP(=O)(O)O` [GLA, glucopyranosyl lipid A], which percent survival [1] is on record?
Answer: improved survival rate

Question: What about the B16F10 tumor growth [2] of the same compound?
Answer: delayed B16F10 tumor growth

Question: What about the B16F10 tumor growth [3] of the same compound?
Answer: delayed B16F10 tumor growth

Question: What about the tumor growth [4] of the same compound?
Answer: delayed tumor growth

Question: What about the B16F10 tumor growth [5] of the same compound?
Answer: delayed B16F10 tumor growth
